{"source": "patent US5268468A", "about": "“N-nitrosophenoxybenzenepropanamine and N-1-chloroethyl carbamate intermediates” (Hoechst-Roussel Pharmaceuticals Incorporated, priority 1993, dated 1993)", "test_system": "serotonin uptake in rat whole brain and hypothalamic synaptosomes", "assay": "[3H]-Serotonin Uptake in Rat Whole Brain and Hypothalamic Synaptosomes", "format": "biochemical, rat (male CR Wistar)", "conditions": "rat whole brain or hypothalamic synaptosomes; 50 nM [3H]-5-hydroxytryptamine; 37° C., 5 minutes; pH 7.4; log-probit analysis; read-out: Inhibition of Serotonin Uptake (IC50)", "note": "Where a name gives a salt, the structure may show the parent alone.", "experimental": "[^3 H]-Serotonin Uptake in Rat Whole Brain\nA. Animals: Male CR Wistar rats (100-125 g).\n1. Krebs-Henseleit Bicarbonate Buffer, pH 7.4 (KHBB):\nMake a 1 liter batch, containing the following salts.\nPotassium chloride 0.35 4.7\nCalcium chloride 0.14 1.3\nAerate for 60 min. with 95% oxygen/5% carbon dioxide,\n2. 0.32 M Sucrose: 21.9 g of sucrose, bring to 200 ml.\n3. Serotonin creatinine sulfate 0.1 mM stock solution is\nmade up in 0.01 N hydrochloric acid. This is used to\ndilute the specific activity of radiolabeled\n[H^3 ]-5-hydroxytryptamine (serotonin).\n4. 5-[1,2-^3 H(N)]-Hydroxytryptamine creatinine sulfate\n(Serotonin), specific activity 20-30 Ci/mmol is used.\nThe final desired concentration of\n[H^3 ]-5-hydroxytryptamine in the assay is 50 nM. The\ndilution factor is 0.8. Therefore, the KHBB is made up to\ncontain 62.5 nM [H^3 ]-5-hydroxy-tryptamine.\nA) 56.1 μl of 0.1 mM 5-hydroxytryptamine\n*B) 0.64 nmole of 5-hydroxytryptamine\n5. For most assays, a 1 mM stock solution of the test com-\npound is made up in suitable solvent and serially diluted\nsuch that the final concentration in the assay ranges from\n2 × 10^-8 to 2 × 10^-5 M. Seven concentrations\nfor each assay. Higher or lower concentrations may be\nused depending on the potency of the compound.\nMale Wistar rats are decapitated and the brain rapidly\nremoved. […]\nscintillation vials, and counted in 10 ml of Liquiscint […]"}
{"smiles": "CN(N)CCC(Oc1ccc(C(F)(F)F)cc1)c1ccccc1", "note": "(stereo not shown) [2-Methyl-2-[3-phenyl-3-[(4-trifluoromethyl)phenoxy]propyl]hydrazine maleate]", "values": [{"measurement": "IC50", "result": 1230, "unit": "nM"}]}
